# Measurements: patent US20230295200A1 (REGENTS OF THE UNIVERSITY OF MICHIGAN, priority 2022, published 2023)
# Biological target: T1, STAT6 protein (Homo sapiens, UniProt P42226)
# T1 sequence (P42226 1-847): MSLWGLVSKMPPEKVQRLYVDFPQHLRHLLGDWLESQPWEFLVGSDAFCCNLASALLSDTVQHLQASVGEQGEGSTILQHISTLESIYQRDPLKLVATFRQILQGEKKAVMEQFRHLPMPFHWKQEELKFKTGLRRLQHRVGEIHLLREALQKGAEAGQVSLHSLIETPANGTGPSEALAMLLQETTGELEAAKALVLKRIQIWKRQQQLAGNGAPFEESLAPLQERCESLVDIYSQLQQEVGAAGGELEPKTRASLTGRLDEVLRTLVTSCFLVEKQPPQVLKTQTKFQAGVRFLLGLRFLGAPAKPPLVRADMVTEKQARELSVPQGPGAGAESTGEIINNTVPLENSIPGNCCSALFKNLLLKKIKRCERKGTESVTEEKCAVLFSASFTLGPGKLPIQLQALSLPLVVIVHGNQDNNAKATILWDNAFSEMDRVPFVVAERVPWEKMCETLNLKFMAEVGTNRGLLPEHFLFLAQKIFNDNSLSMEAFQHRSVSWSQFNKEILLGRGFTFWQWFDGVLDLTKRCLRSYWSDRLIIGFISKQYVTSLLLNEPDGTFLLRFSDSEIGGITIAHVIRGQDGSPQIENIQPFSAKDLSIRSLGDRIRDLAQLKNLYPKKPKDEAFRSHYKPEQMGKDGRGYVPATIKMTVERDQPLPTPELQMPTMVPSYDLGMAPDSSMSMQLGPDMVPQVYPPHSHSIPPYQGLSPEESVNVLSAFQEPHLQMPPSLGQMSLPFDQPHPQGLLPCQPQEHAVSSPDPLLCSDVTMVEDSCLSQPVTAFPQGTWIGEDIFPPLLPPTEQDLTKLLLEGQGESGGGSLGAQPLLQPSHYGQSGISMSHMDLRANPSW
# Assay: Fluorescence polarization (FP) binding assay, STAT6
# Conditions: not given
# How it was run: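 Polarization read after 1 h equilibration at room temperature (preceded by 15 min shaking) of 200 nM STAT5 and/or STAT6 with 5 nM fluorescein tracer. Buffer: PBS pH 7.4 plus 0.01% BGG, 0.01% Tween-20, 2 mM DTT; inhibition constants derived by nonlinear fitting.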
row,Compound,Ki
1,"CCOP(=O)(O)C(F)(F)c1ccc2sc(C(=O)N[C@H]3CN(C(C)=O)CC[C@H]4CC[C@@H](C(=O)N5CCC6(CCCCCC6)C5)N4C3=O)cc2c1 [Compound 384, ethyl hydrogen ((2-(((5S,85,10aR)-3-acetyl-6-oxo-8-(2-azaspiro[4.6]undecane-2-carbonyl)decahydropyrrolo[1,2-a][1,5]diazocin-5-yl)carbamoyl)benzo[b]thiophen-5-yl)difluoromethyl)phosphonate]",> 10 µM
2,"CCOP(=O)(O)C(F)(F)c1ccc2sc(C(=O)N[C@H]3CN(C(C)=O)CC[C@H]4CC[C@@H](C(=O)N5CCCC56CCCC6)N4C3=O)cc2c1 [Compound 386, ethyl hydrogen ((2-(((5S,8S,10aR)-3-acetyl-6-oxo-8-(1-azaspiro[4.4]nonane-1-carbonyl)decahydropyrrolo[1,2-a][1,5]diazocin-5-yl)carbamoyl)benzo[b]thiophen-5-yl)difluoromethyl)phosphonate]",> 10 µM

# Same assay, conditions: FP competition, 5 nM fluorescein-labeled tracer, 200 nM protein, PBS pH7.4; read-out: Binding STAT6
row,Compound,Ki
1,"CC(=O)N1CC[C@H]2CC[C@@H](C(=O)N3Cc4cccc(Cl)c4C3)N2C(=O)[C@@H](NC(=O)c2cc3cc(C(F)(F)P(=O)(O)O)ccc3[nH]2)C1 [Compound 378, ((2-(((5S,8S,10aR)-3-acetyl-8-(4-chloroisoindoline-2-carbonyl)-6-oxodecahydropyrrolo[1,2-a][1,5]diazocin-5-yl)carbamoyl)-1H-indol-5-yl)difluoromethyl)phosphonic acid]",> 10 µM
2,"CN(C(=O)[C@@H]1CC[C@@H]2CCC[C@H](NC(=O)c3cc4cc(C(F)(F)P(=O)(O)O)ccc4s3)C(=O)N21)c1ccc(Cl)cc1 [Compound 379, ((2-(((3S,6S,9aS)-3-((4-chlorophenyl)(methyl)carbamoyl)-5-oxooctahydro-1H-pyrrolo[1,2-a]azepin-6-yl)carbamoyl)benzo[b]thiophen-5-yl)difluoromethyl)phosphonic acid]",> 10 µM
3,"CN(C(=O)[C@@H]1CC[C@H]2CCC[C@H](NC(=O)c3cc4cc(C(F)(F)P(=O)(O)O)ccc4s3)C(=O)N21)c1ccc(Cl)cc1 [Compound 380, ((2-(((3S,65,9aR)-3-((4-chlorophenyl)(methyl)carbamoyl)-5-oxooctahydro-1H-pyrrolo[1,2-a]azepin-6-yl)carbamoyl)benzo[b]thiophen-5-yl)difluoromethyl)phosphonic acid]",> 10 µM
4,"CC(=O)N1CC[C@H]2CC[C@@H](C(=O)N3CCCCC3)N2C(=O)[C@@H](NC(=O)c2cc3cc(C(F)(F)P(=O)(O)O)ccc3s2)C1 [Compound 381, ((2-(((5S,8S,10aR)-3-acetyl-6-oxo-8-(piperidine-1-carbonyl)decahydropyrrolo[1,2-a][1,5]diazocin-5-yl)carbamoyl)benzo[b]thiophen-5-yl)difluoromethyl)phosphonic acid]",> 10 µM
5,"CC(=O)N1CC[C@H]2CC[C@@H](C(=O)N3CCC4(CCCC4)C3)N2C(=O)[C@@H](NC(=O)c2cc3cc(C(F)(F)P(=O)(O)O)ccc3s2)C1 [Compound 382, ((2-(((5S,8S,10aR)-3-acetyl-6-oxo-8-(2-azaspiro[4.4]nonane-2-carbonyl)decahydropyrrolo[1,2-a][1,5]diazocin-5-yl)carbamoyl)benzo[b]thiophen-5-yl)difluoromethyl)phosphonic acid]",> 10 µM
6,"CC(=O)N1CC[C@H]2CC[C@@H](C(=O)N3CCC4(CCCCC4)C3)N2C(=O)[C@@H](NC(=O)c2cc3cc(C(F)(F)P(=O)(O)O)ccc3s2)C1 [Compound 383, ((2-(((5,8S,10aR)-3-acetyl-6-oxo-8-(2-azaspiro[4.5]decane-2-carbonyl)decahydropyrrolo[1,2-a][1,5]diazocin-5-yl)carbamoyl)benzo[b]thiophen-5-yl)difluoromethyl)phosphonic acid]",> 10 µM
7,"CC(=O)N1CC[C@H]2CC[C@@H](C(=O)N3CCC4(CCCCCC4)C3)N2C(=O)[C@@H](NC(=O)c2cc3cc(C(F)(F)P(=O)(O)O)ccc3s2)C1 [Compound 385, ((2-(((5S,8S,10aR)-3-acetyl-6-oxo-8-(2-azaspiro[4.6]undecane-2-carbonyl)decahydropyrrolo[1,2-a][1,5]diazocin-5-yl)carbamoyl)benzo[b]thiophen-5-yl)difluoromethyl)phosphonic acid]",> 10 µM
8,"CC(=O)N1CC[C@H]2CC[C@@H](C(=O)N3CCCC34CCCC4)N2C(=O)[C@@H](NC(=O)c2cc3cc(C(F)(F)P(=O)(O)O)ccc3s2)C1 [Compound 387, ((2-(((5S,8S,10aR)-3-acetyl-6-oxo-8-(1-azaspiro[4.4]nonane-1-carbonyl)decahydropyrrolo[1,2-a][1,5]diazocin-5-yl)carbamoyl)benzo[b]thiophen-5-yl)difluoromethyl)phosphonic acid]",> 10 µM
9,"CCN(C(=O)[C@@H]1CC[C@@H]2CCN(C(C)=O)C[C@H](NC(=O)c3cc4cc(C(F)(F)P(=O)(O)O)ccc4s3)C(=O)N21)c1ccc(Cl)cc1 [Compound 388, ((2-(((5S,8S,10aR)-3-acetyl-8-((4-chlorophenyl)(ethyl)carbamoyl)-6-oxodecahydropyrrolo[1,2-a][1,5]diazocin-5-yl)carbamoyl)benzo[b]thiophen-5-yl)difluoromethyl)phosphonic acid]",> 10 µM
10,"CC(=O)N1CC[C@H]2CC[C@@H](C(=O)N(c3ccc(Cl)cc3)C(C)C)N2C(=O)[C@@H](NC(=O)c2cc3cc(C(F)(F)P(=O)(O)O)ccc3s2)C1 [Compound 389, ((2-(((5S,8S,10aR)-3-acetyl-8-((4-chlorophenyl)(isopropyl)carbamoyl)-6-oxodecahydropyrrolo[1,2-a][1,5]diazocin-5-yl)carbamoyl)benzo[b]thiophen-5-yl)difluoromethyl)phosphonic acid]",1 to 10 µM

# Next, values leading:
row,Ki,Compound
1,> 10 µM,"CC(=O)N1CC[C@H]2CC[C@@H](C(=O)N3CCC(C)(C(C)C)C3)N2C(=O)[C@@H](NC(=O)c2cc3cc(C(F)(F)P(=O)(O)O)ccc3s2)C1 (stereo partly drawn) [Compound 390, ((2-(((5S,8S,10aR)-3-acetyl-8-(3-isopropyl-3-methylpyrrolidine-1-carbonyl)-6-oxodecahydropyrrolo[1,2-a][1,5]diazocin-5-yl)carbamoyl)benzo[b]thiophen-5-yl)difluoromethyl)phosphonic acid]"
2,> 10 µM,"CC(=O)N1CC[C@H]2CC[C@@H](C(=O)N3CCCCC4(CCCC4)C3)N2C(=O)[C@@H](NC(=O)c2cc3cc(C(F)(F)P(=O)(O)O)ccc3s2)C1 [Compound 391, ((2-(((5S,85,10aR)-3-acetyl-6-oxo-8-(7-azaspiro[4.6]undecane-7-carbonyl)decahydropyrrolo[1,2-a][1,5]diazocin-5-yl)carbamoyl)benzo[b]thiophen-5-yl)difluoromethyl)phosphonic acid]"
3,> 10 µM,"CC(=O)N1CC[C@H]2CC[C@@H](C(=O)N3CCC(C(N)=O)(C(F)(F)F)C3)N2C(=O)[C@@H](NC(=O)c2cc3cc(C(F)(F)P(=O)(O)O)ccc3s2)C1 (stereo partly drawn) [Compound 392, ((2-(((5S,8S,10aR)-3-acetyl-8-(3-carbamoyl-3-(trifluoromethyl)pyrrolidine-1-carbonyl)-6-oxodecahydropyrrolo[1,2-a][1,5]diazocin-5-yl)carbamoyl)benzo[b]thiophen-5-yl)difluoromethyl)phosphonic acid]"
4,> 10 µM,"CC(=O)N1CC[C@H]2CC[C@@H](C(=O)N3CCC(C)(c4ccccc4)C3)N2C(=O)[C@@H](NC(=O)c2cc3cc(C(F)(F)P(=O)(O)O)ccc3s2)C1 (stereo partly drawn) [Compound 393, ((2-(((5S,8S,10aR)-3-acetyl-8-(3-methyl-3-phenylpyrrolidine-1-carbonyl)-6-oxodecahydropyrrolo[1,2-a][1,5]diazocin-5-yl)carbamoyl)benzo[b]thiophen-5-yl)difluoromethyl)phosphonic acid]"
5,> 10 µM,"CC(=O)N1CC[C@H]2CC[C@@H](C(=O)N(C)c3ccc(Br)cc3)N2C(=O)[C@@H](NC(=O)c2cc3cc(C(F)(F)P(=O)(O)O)ccc3s2)C1 [Compound 394, ((2-(((5S,8S,10aR)-3-acetyl-8-((4-bromophenyl)(methyl)carbamoyl)-6-oxodecahydropyrrolo[1,2-a][1,5]diazocin-5-yl)carbamoyl)benzo[b]thiophen-5-yl)difluoromethyl)phosphonic acid]"
6,> 10 µM,"CC(=O)N1CC[C@H]2CC[C@@H](C(=O)N3CCC(C)(C4CC4)C3)N2C(=O)[C@@H](NC(=O)c2cc3cc(C(F)(F)P(=O)(O)O)ccc3s2)C1 (stereo partly drawn) [Compound 395, ((2-(((5S,8S,10aR)-3-acetyl-8-(3-cyclopropyl-3-methylpyrrolidine-1-carbonyl)-6-oxodecahydropyrrolo[1,2-a][1,5]diazocin-5-yl)carbamoyl)benzo[b]thiophen-5-yl)difluoromethyl)phosphonic acid]"
